What was measured:
[1] = tested on: Escherichia coli K-12 (MG1655); type: cell-based; details: for repression of antimicrobial activity by human serum: E. coli 10^6 cfu/ml, 5% human serum (v/v) compared with PBS, mean ± SD n = 3
Experimental: The Gram-negative bacteria Escherichia coli K-12 (MG1655) was cultured and plated in/on Luria–Bertani broth/agar plate (Merck Millipore, Darmstadt, Germany). The bacteria were grown overnight, washed, and diluted 1:2000 in phosphate buffered saline (PBS), pH 7.4. Bacteria (ca. 1 × 10^6 colony-forming units, cfu/ml) was mixed with antimicrobial peptides (AMP) in 100 µl PBS and incubated at 37 °C. Serial dilutions of each AMP-treated bacteria in the presence of human sera, proteins or lipids were prepared and plated for determination of remaining viable cells (expressed as cfu). At least three independent experiments were performed for each assay to determine the mean value with standard deviation (SD)[31].
For all in vitro antimicrobial assays, the average value with standard deviation (SD) was determined from at least three independent experiments. Mann–Whitney test and Kruskal–Wallis tests were performed to determine the significance. For lipid quantification, the average value with standard deviation (SD) was determined from at least three independent experiments and One-way ANOVA test was performed to determine the significance of the difference in the measured values. P < 0.05 was considered to be statistically significant.

human albumin = details: cited from earlier work
human serum = assay: Band shift of AMPs in human serum on horizontal native PAGE; type: binding; details: AMP 4 µg in 10 µl diluted human serum, 5–40% (v/v), 8% horizontal native PAGE, Coomassie blue
Experimental: (§1) Various AMPs (4 µg each) were incubated with human serum, isolated components or lipid at the indicated concentrations at room temperature in 10 µl PC buffer (20 mM HEPES, pH7.4, 50 mM NaCl) for 30 min, subjected to horizontal native 8% polyacrylamide gel electrophoreses (PAGE), pH8.0/pH8.8, and stained with Coomassie Blue.

HDL = assay: Band shift of AMPs by HDL on horizontal native PAGE; type: binding, human; details: AMP 4 µg, agents 10 µg or lipids 4 µg in BSA, 8% horizontal native PAGE
Experimental: as §1

## CC[C@H](C)[C@H](NC(=O)[C@H](CCCCN)NC(=O)[C@H](CCC(=O)O)NC(=O)[C@H](CCCCN)NC(=O)[C@H](CO)NC(=O)[C@H](CCCCN)NC(=O)[C@H](CCCNC(=N)N)NC(=O)[C@H](Cc1ccccc1)NC(=O)[C@H](Cc1ccccc1)NC(=O)[C@H](CC(=O)O)NC(=O)CNC(=O)[C@H](CC(C)C)NC(=O)[C@@H](N)CC(C)C)C(=O)NCC(=O)N[C@@H](CCCCN)C(=O)N[C@@H](CCC(=O)O)C(=O)N[C@@H](Cc1ccccc1)C(=O)N[C@@H](CCCCN)C(=O)N[C@@H](CCCNC(=N)N)C(=O)N[C@H](C(=O)N[C@H](C(=O)N[C@@H](CCC(N)=O)C(=O)N[C@@H](CCCNC(=N)N)C(=O)N[C@H](C(=O)N[C@@H](CCCCN)C(=O)N[C@@H](CC(=O)O)C(=O)N[C@@H](Cc1ccccc1)C(=O)N[C@@H](CC(C)C)C(=O)N[C@@H](CCCNC(=N)N)C(=O)N[C@@H](CC(N)=O)C(=O)N[C@@H](CC(C)C)C(=O)N[C@H](C(=O)N1CCC[C@H]1C(=O)N[C@@H](CCCNC(=N)N)C(=O)N[C@H](C(=O)N[C@@H](CCC(=O)O)C(=O)N[C@@H](CO)C(=O)O)[C@@H](C)O)C(C)C)[C@@H](C)CC)C(C)C)[C@@H](C)CC [LL37]
[1]; E. coli, cfu counting, 5% human serum, LC99 = lowest AMP concentration that kills 99% of the original inoculum, 37 °C
  LC99 in 5% human serum: > 512 mg/L
[1]; E. coli, cfu counting, PBS pH 7.4, LC99 = lowest AMP concentration that kills 99% of the original inoculum, 37 °C
  LC99 in PBS: 16 mg/L

## CC(=O)CC(c1ccccc1)c1c(O)c2ccccc2oc1=O (centres unmarked) [warfarin]
Human albumin; human albumin drug binding site I (warfarin) and site II (ibuprofen)
  fraction bound to human albumin: more than 90%

## Pleurocidin: antimicrobial peptide from Pleuronectes amertcanus (GWGSFFKKAAHVGKHVGKAALTHYL)
Human serum
  band shift of AMP in human serum: not shifted
[1]
  repression of antimicrobial activity by human serum: not at all observed
[1]; E. coli, LC99 in 5% human serum versus PBS
  fold increase of LC99 in 5% human serum over PBS: one
[1]; E. coli, NRC12 16 mg/L, Pleurocidin 8 mg/L
  bactericidal activity in presence of purified S50, E5, Apo-AI, PC, SM, CO and HDL: resistant
HDL
  band shift by purified S50, E5, Apo-AI, PC, SM, CO and HDL: resistant

## Polymyxin B
Human serum
  band shift of AMP in human serum: not shifted
[1]
  repression of antimicrobial activity by human serum: not at all observed

## daptomycin
Human albumin; human serum
  fraction bound and inhibited by albumin: 90–94%

From publication PMC8850444, “The lipid components of high-density lipoproteins (HDL) are essential for the binding and transportation of antimicrobial peptides in human serum” (Scientific Reports, 2022)
